In patent publication US20220331303A1, “USE OF AN OREXIN 2 RECEPTOR AGONIST FOR THE TREATMENT OF EXCESSIVE SLEEPINESS” (Takeda Pharmaceutical Company Limited, priority 2019, published 2022):

Test system: patients with NT2
Test: MWT in patients with NT2 (Cohorts C1, C2)
Type: in vivo, human
Description: The purpose of the study was to evaluate the safety, tolerability, pharmacokinetics and pharmacodynamics of Compound A after multiple days of IV administration in patients with NT2. NT2 patients were evaluated in Cohort C1 and C2 (Table 30). Compound A or placebo were administered via IV infusion over 9 hours once daily for 7 days. A total of 14 patients with NT2 were treated with Compound A or placebo (5, 4, and 5 subjects in the placebo, Compound A 44 mg, and Compound A 112 mg groups, respectively). In this part, potential efficacy of Compound A was evaluated with MWT, ESS, KSS, night-time PSG (NPSG), and PGI-C as an exploratory PD assessment.
An overview of study schedule and PD testing in NT2 Patients is illustrated in FIG. 9. After screening, patients eligible for these parts had to discontinue any medication for narcolepsy including medications used for EDS or cataplexy. The medications had to be stopped for a minimum of 7 days or at least 5 half-lives of each medication, whichever was longer, before the first day of dosing (Day 1). In all cohorts of these parts, subjects underwent NPSG on Day −2 and baseline MWT sessions 4 times on Day −1 (at around 10:00, 12:00, 14:00, and 16:00). Study drug dosing via IV infusion was started at around 08:00 on Days 1-7. MWT was conducted on Day 1 at around 10:00, 12:00, 14:00, and 16:00. Subjects were allowed to take a nap on the days with no MWT assessment. At night of Day 6, the subjects underwent NPSG once again to evaluate the effect of multiple daytime dosing on night-time sleep structure. On Day 7, the subjects underwent MWT at the same hours as on Day −1. The subjects were discharged from the study site on Day 8.
The MWT is a validated objective measure that evaluates a person's ability to remain awake under soporific conditions for a defined period of time. As there is no biological measure of wakefulness, this was measured indirectly by the inability or delayed tendency to fall asleep. This tendency to fall asleep was measured via EEG-derived sleep latency in MWT.
On Day −1, Day 1 and Day 7, 40-minute session (1 session) of MWTs was performed 4 times (approximately at 10:00, 12:00, 14:00, and 16:00) per day. Sleep latency of each session was recorded. Subjects were required to stay awake during an interval between sessions.

COC(=O)N1CCC[C@H](NS(C)(=O)=O)[C@@H]1CO[C@H]1CC[C@@H](c2ccccc2)CC1 [Compound A, methyl (2R,3S)-3-((methylsulfonyl)amino)-2-(((cis-4-phenylcyclohexyl)oxy)methyl)piperidine-1-carboxylate]
Mean change from baseline in average sleep latency in MWT (Compound A 44 mg, Day 1): 23.88 min
Mean sleep latency in MWT (Compound A 44 mg, Day 1): 33.03 min
Mean change from baseline in average sleep latency in MWT (Compound A 44 mg, Day 7): 25.79 min
Mean sleep latency in MWT (Compound A 44 mg, Day 7): 34.47 min
Maximum sleep latency achieved in MWT (Compound A 44 mg, at 2 and 8 hours on Day 1 and at 4 and 8 hours on Day 7): 40 min
Mean change from baseline in average sleep latency in MWT (Compound A 112 mg, Day 1): 31.15 min
Mean sleep latency in MWT (Compound A 112 mg, Day 1): 38.48 min
Mean change from baseline in average sleep latency in MWT (Compound A 112 mg, Day 7): 28.28 min
Mean sleep latency in MWT (Compound A 112 mg, Day 7): 35.60 min
Maximum sleep latency achieved in MWT (Compound A 112 mg, at 2, 4, and 8 hours both on Day 1 and Day 7): 40 min
